Data reported in patent US12486233B2 (Exelixis, Inc., priority 2014, dated 2025).
Blank lines part the entries; values can stand above or below the molecule they belong to.

What was measured:
[1] = Dynamic Vapor Sorption (DVS): hygroscopicity and sorption properties; assay type: physicochemical; details: for hygroscopicity classification: 25° C., European Pharmacopeia classification where stated
Method: Dynamic Vapor Sorption (DVS) was performed using a Hiden Analytical Instruments IGAsorp Vapor Sorption Balance. Approximately 30 mg of sample was placed into a wire-mesh Vapor sorption balance pan, loaded into the IGAsorp Vapor sorption balance and held at 25° C.±0.1° C. The sample was subjected to a step profile from 0 to 90% RH at 10% increments, followed by desorption from 80% RH to 0% RH at 10% increments. The equilibrium criterion was set to 99.0% step completion within a minimum of […] and a maximum of 5 hours for each increment. The weight change during the sorption cycle was monitored, allowing for the hygroscopic nature of the sample to be determined. The data collection interval was in seconds.

[2] = BCS classification / solubility in initial development experiments; assay type: physicochemical; details: free base; in water
[3] = permeability (BCS classification) in initial development experiments; assay type: in vitro ADME; details: free base
[4] = physical stability of amorphous material under stress conditions (temperature, relative humidity); assay type: physicochemical; details: 100° C. for 4 days

hygroscopicity classification ([1]; DVS): hygroscopic
SMILES: COc1cc2nccc(Oc3ccc(NC(=O)C4(C(=O)Nc5ccc(F)cc5)CC4)cc3)c2cc1OC [Compound 1 Form XXX, N-{4-[(6,7-dimethoxyquinolin-4-yl)oxy]phenyl}-N′-(4-fluorophenyl) cyclopropane-1,1-dicarboxamide]

solubility [2]: low solubility
permeability [3]: high permeability
SMILES: COc1cc2nccc(Oc3ccc(NC(=O)C4(C(=O)Nc5ccc(F)cc5)CC4)cc3)c2cc1OC [Compound 1, N-{4-[(6,7-dimethoxyquinolin-4-yl)oxy]phenyl}-N′-(4-fluorophenyl) cyclopropane-1,1-dicarboxamide]

weight lost on drying to 0% RH ([1]; DVS, sample dried at 0% RH before sorption and desorption): −7%
SMILES: COc1cc2nccc(Oc3ccc(NC(=O)C4(C(=O)Nc5ccc(F)cc5)CC4)cc3)c2cc1OC [Compound 1 Form XXXI, N-{4-[(6,7-dimethoxyquinolin-4-yl)oxy]phenyl}-N′-(4-fluorophenyl) cyclopropane-1,1-dicarboxamide]

weight gain between 0% RH and 80% RH (in words) ([1]; DVS): very small weight gain
hygroscopicity classification ([1]; DVS): non-hygroscopic
SMILES: COc1cc2nccc(Oc3ccc(NC(=O)C4(C(=O)Nc5ccc(F)cc5)CC4)cc3)c2cc1OC [Compound 1 Form III, N-{4-[(6,7-dimethoxyquinolin-4-yl)oxy]phenyl}-N′-(4-fluorophenyl) cyclopropane-1,1-dicarboxamide]

water uptake at 90% RH ([1]; DVS): approximately 5%
hygroscopicity classification ([1]; DVS): hygroscopic
total weight gain between 0% RH and 80% RH ([1]; DVS, sample dried at 0% RH first): 4 % w/w
crystallization by XRPD of the sample post DVS ([1]; after the DVS cycle): no crystallization had occurred
physical stability to heat stressing [4]: stable
SMILES: COc1cc2nccc(Oc3ccc(NC(=O)C4(C(=O)Nc5ccc(F)cc5)CC4)cc3)c2cc1OC [Compound 1 Amorphous Form, N-{4-[(6,7-dimethoxyquinolin-4-yl)oxy]phenyl}-N′-(4-fluorophenyl) cyclopropane-1,1-dicarboxamide]

weight gain between 0% RH and 80% RH (in words) ([1]; DVS): very small weight gain
hygroscopicity classification ([1]; DVS): non-hygroscopic
SMILES: COc1cc2nccc(Oc3ccc(NC(=O)C4(C(=O)Nc5ccc(F)cc5)CC4)cc3)c2cc1OC [Compound 1 Form XXVIII, N-{4-[(6,7-dimethoxyquinolin-4-yl)oxy]phenyl}-N′-(4-fluorophenyl) cyclopropane-1,1-dicarboxamide]

weight gain between 40% RH and 90% RH ([1]; DVS): very small weight gain
hygroscopicity classification ([1]; DVS): non-hygroscopic
stability at higher humidity ([1]; DVS, 40% RH to 90% RH): stable
SMILES: COc1cc2nccc(Oc3ccc(NC(=O)C4(C(=O)Nc5ccc(F)cc5)CC4)cc3)c2cc1OC [Compound 1 Form I, N-{4-[(6,7-dimethoxyquinolin-4-yl)oxy]phenyl}-N′-(4-fluorophenyl) cyclopropane-1,1-dicarboxamide]
